Here are results for 21 compounds from patent US10975056B2 (GlaxoSmithKline Intellectual Property Development Limited, priority 2016, dated 2021).

Where “and” joins values, the source holds several entries; their conditions need not be identical. Equal entries are not always repeated. Where two headings read alike, the source gives them in different places.

One assay addresses DNMT1 (Homo sapiens, UniProt P26358). Briefly: DNMT1 biochemical activity, breaklight assay and/or SPA assay.
Assay [1] relates to erythroid progenitor cells (EPCs). Briefly: Fetal hemoglobin (HbF) ELISA in day 7 erythroid progenitor cells. The class given is cell-based, human. Conditions: Homo sapiens, Erythroid progenitor cell, read-out: EPC ELISA (pEC50 category) (converted). The method in brief: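 HbF induction was read by anti-HbF sandwich ELISA (HRP/TMB, OD450) on lysates and normalized to vehicle-treated cells. Cells were day 7 erythroid progenitors derived from human bone marrow CD34+ cells, seeded at 1,000/well with 3 U/mL rhEPO. Compound was given for 5 days at 37 °C at final concentrations […].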

Setting [2] is: binned activity in either the breaklight or the SPA assay, read-out: DNMT1 BioChemical (pIC50 category) (converted).
Setting [3] is: breaklight assay and/or SPA assay, repeated experimental runs, read-out: average pIC50 against DNMT1 (converted).
[4] abbreviates: binned activity in either the breaklight or the SPA assay.

Sequence of DNMT1 (P26358 whole entry, looked up): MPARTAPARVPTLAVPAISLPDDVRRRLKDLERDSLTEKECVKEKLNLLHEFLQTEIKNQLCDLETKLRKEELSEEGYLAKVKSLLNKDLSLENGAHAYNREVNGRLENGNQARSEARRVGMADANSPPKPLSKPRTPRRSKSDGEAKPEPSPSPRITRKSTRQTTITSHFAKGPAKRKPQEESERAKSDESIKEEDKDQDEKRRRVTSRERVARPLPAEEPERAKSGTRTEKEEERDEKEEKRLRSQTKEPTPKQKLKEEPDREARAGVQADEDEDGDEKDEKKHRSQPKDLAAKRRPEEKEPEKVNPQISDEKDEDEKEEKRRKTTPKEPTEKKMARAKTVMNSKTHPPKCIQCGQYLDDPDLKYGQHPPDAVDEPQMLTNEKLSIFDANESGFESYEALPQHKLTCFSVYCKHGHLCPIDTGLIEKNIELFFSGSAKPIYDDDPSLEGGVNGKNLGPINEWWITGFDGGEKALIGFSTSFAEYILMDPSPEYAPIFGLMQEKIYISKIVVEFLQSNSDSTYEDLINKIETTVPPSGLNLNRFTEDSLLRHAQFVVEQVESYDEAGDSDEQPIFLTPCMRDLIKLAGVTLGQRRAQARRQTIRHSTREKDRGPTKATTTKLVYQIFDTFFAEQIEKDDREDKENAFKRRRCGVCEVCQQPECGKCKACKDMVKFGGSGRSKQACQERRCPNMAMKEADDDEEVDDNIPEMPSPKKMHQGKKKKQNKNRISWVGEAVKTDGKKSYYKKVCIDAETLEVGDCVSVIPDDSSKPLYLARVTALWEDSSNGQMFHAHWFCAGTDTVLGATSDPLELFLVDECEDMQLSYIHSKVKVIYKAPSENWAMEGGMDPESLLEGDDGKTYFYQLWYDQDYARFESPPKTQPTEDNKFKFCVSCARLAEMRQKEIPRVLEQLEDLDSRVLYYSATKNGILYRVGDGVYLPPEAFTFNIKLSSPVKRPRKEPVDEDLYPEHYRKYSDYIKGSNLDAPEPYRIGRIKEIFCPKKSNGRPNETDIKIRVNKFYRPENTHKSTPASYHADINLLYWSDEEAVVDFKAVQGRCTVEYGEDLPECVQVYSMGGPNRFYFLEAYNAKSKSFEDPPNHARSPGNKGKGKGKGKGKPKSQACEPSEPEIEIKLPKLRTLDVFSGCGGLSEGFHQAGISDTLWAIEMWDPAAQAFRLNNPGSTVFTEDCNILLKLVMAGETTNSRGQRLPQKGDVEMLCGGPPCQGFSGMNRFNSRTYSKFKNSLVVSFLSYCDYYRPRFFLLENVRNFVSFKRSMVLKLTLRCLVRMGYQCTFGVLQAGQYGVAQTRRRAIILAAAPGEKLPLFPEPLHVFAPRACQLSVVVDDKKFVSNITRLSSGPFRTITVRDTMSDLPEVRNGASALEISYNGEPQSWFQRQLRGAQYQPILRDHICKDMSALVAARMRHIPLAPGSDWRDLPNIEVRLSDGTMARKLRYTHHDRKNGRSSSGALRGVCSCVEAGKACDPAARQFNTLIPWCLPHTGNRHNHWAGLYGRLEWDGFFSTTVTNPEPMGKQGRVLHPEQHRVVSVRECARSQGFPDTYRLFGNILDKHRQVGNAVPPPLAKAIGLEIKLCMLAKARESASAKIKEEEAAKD

As for `CCc1c(C#N)c(SCc2ccc(CNC(C)=O)cc2)nc(N(C)CCO)c1C#N` [Example 103, N-(4-(((3,5-Dicyano-4-ethyl-6-((2-hydroxyethyl)(methyl)amino)pyridin-2-yl)thio)methyl)benzyl)acetamide], the values for the IC50 at DNMT1 (setting [2]) and on DNMT1 (setting [3]) were 1000 to 31600 nM and ≥ 1000 nM, respectively. For the same compound, the EC50 in assay [1] (HbF ELISA, day 7 EPCs, 5 days) was 1000 to 31600 nM.

Consider `CCc1c(C#N)c(SC(C(N)=O)c2ccccc2)nc(N2CC[C@H](OP(=O)(O)O)C2)c1C#N` (stereo partly drawn) [Example 415, (3S)-1-(6-((2-amino-2-oxo-1-phenylethyl)thio-3,5-dicyano-4-ethylpyridin-2-yl) Pyrrolidin-3-yldihydrogen phosphate], for which, on DNMT1 (setting [2]), the IC50 is 1000 to 31600 nM. Besides, in assay [1], the EC50 is 1000 to 31600 nM.

Regarding `CCc1c(C#N)c(SC(C(N)=O)c2ccccc2)nc(N2CCNC(C)CC2)c1C#N` (centres unmarked) [Example 67, 2-{[3,5-dicyano-4-ethyl-6-(5-methyl-1,4-diazepan-1-yl)pyridin-2-yl]sulfanyl}-2-phenylacetamide], the “DNMT1 BioChemical (pIC50 category)” value on DNMT1 (setting [4]) is listed as “D (Category D: ≥6.5)”. Besides, the EC50 in assay [1] (HbF ELISA, day 7 EPCs, 5 days) was < 316 nM.

Regarding `CCc1c(C#N)c(SCc2ccc(C#N)c(C)c2)nc(N2CCCN(C)CC2)c1C#N` [Example 295, 2-((4-Cyano-3-methylbenzyl)thio)-4-ethyl-6-(4-methyl-1,4-diazepan-1-yl)pyridine-3,5-dicarbonitrile], the IC50 at DNMT1 (setting [2]) is 316 to 1000 nM. The EC50 in assay [1] (HbF ELISA, day 7 EPCs, 5 days) is > 31600 nM.

With `CCc1c(C#N)c(SCc2ccc(N3CCCS3(=O)=O)cc2)nc(N2CCC(N)CC2)c1C#N` [Example 600, 2-(4-aminopiperidin-1-yl)-6-((4-(1,1-dioxidoisothiazolidin-2-yl)benzyl)thio)-4-ethylpyridine-3,5-dicarbonitrile], the “DNMT1 BioChemical (pIC50 category)” value at DNMT1 (setting [4]) is on record as “D (Category D: ≥6.5)”. Further, the EC50 in assay [1] (HbF ELISA, day 7 EPCs, 5 days) was > 31600 nM.

Consider `CCc1c(C#N)c(SC(C(N)=O)c2ccccc2)nc(N(C)CC(=O)N2C[C@@H](CO)[C@@H](O)C2)c1C#N` (stereo partly drawn) [Example 637, 2-((3,5-dicyano-4-ethyl-6-((2-((3R,4S)-3-hydroxy-4-(hydroxymethyl)pyrrolidin-1-yl)-2-oxoethyl)(methyl)amino)pyridin-2-yl)thio)-2-phenylacetamide], for which the “DNMT1 BioChemical (pIC50 category)” value on DNMT1 (setting [4]) is “D (Category D: ≥6.5)”. In addition, in assay [1] (HbF ELISA, day 7 EPCs, 5 days), the EC50 was 1000 to 31600 nM.

For the compound `CCc1c(C#N)c(SC(C(N)=O)c2ccccc2)nc(N(C)CC(=O)N2C[C@@H](CO)[C@H](O)C2)c1C#N` (some centres unmarked) [Example 649], the “DNMT1 BioChemical (pIC50 category)” value at DNMT1 (setting [4]) is “D (Category D: ≥6.5)”. Further, the “average pIC50 against DNMT1” value at DNMT1 (breaklight assay and/or SPA assay, repeated experimental runs) was > 6.5. Besides, the IC50 at DNMT1 (setting [3]) was 126 nM. In addition, the EC50 in assay [1] (HbF ELISA, day 7 EPCs, 5 days) was 1000 to 31600 nM.

Consider `CCc1c(C#N)c(SCc2ccc(CNC(=O)OC(C)(C)C)cc2)nc(N2CCCN(C)CC2)c1C#N` [Example 69, tert-Butyl 4-(((3,5-dicyano-4-ethyl-6-(4-methyl-1,4-diazepan-1-yl)pyridin-2-yl)thio)methyl)benzylcarbamate], for which the values for the IC50 on DNMT1 (setting [2]) and on DNMT1 (setting [3]) were 1000 to 31600 nM and ≥ 1000 nM, respectively. For the same compound, the EC50 in assay [1] (HbF ELISA, day 7 EPCs, 5 days) was > 31600 nM.

As for `CCc1c(C#N)c(SCc2ccc(NC(C)=O)cc2)nc(N(C)C)c1C#N` [Example 273], on DNMT1 (setting [2]), the IC50 was 316 to 1000 nM. For the same compound, the EC50 in assay [1] (HbF ELISA, day 7 EPCs, 5 days) is 1000 to 31600 nM.

On to `N#Cc1c(SC(C(N)=O)c2ccccc2)nc(N2CCC(O)(CN)CC2)c(C#N)c1C1CC1` (centres unmarked) [Example 23], for which the “DNMT1 BioChemical (pIC50 category)” value on DNMT1 (setting [4]) was “D (Category D: ≥6.5)”. Besides, the EC50 in assay [1] (HbF ELISA, day 7 EPCs, 5 days) is 1000 to 31600 nM.

With `N#Cc1c(SC(C(N)=O)c2ccccc2)nc(N2CC(O)C2)c(C#N)c1C1CC1` (centres unmarked) [Example 387, 2-((3,5-Dicyano-4-cyclopropyl-6-(13-hydroxyazetidin-1-yl)pyridin-2-yl)thio)-2-phenylacetamide], the “DNMT1 BioChemical (pIC50 category)” value on DNMT1 (setting [4]) is listed as “D (Category D: ≥6.5)”. The EC50 in assay [1] (HbF ELISA, day 7 EPCs, 5 days) was 1000 to 31600 nM.

In the case of `CCc1c(C#N)c(SC(C(N)=O)c2ccccc2)nc(N(C)Cc2nnc[nH]2)c1C#N` (centres unmarked) [Example 341, 2-((6-(((4H-1,2,4-Triazol-3-yl)methyl)(methyl)amino)-3,5-dicyano-4-ethylpyridin-2-yl)thio)-2-phenylacetamide], the “DNMT1 BioChemical (pIC50 category)” value on DNMT1 (setting [4]) is listed as “D (Category D: ≥6.5)”. In assay [1] (HbF ELISA, day 7 EPCs, 5 days), the EC50 is < 316 nM.

Regarding `CCc1c(C#N)c(SC(C(N)=O)c2cccc(F)n2)nc(N2CCCN(C)CC2)c1C#N` (centres unmarked) [Example 206, 2-((3,5-Dicyano-4-ethyl-6-(4-methyl-1,4-diazepan-1-yl)pyridin-2-yl)thio)-2-(6-fluoropyridin-2-yl)acetamide], the IC50 at DNMT1 (setting [2]) was 316 to 1000 nM. In assay [1] (HbF ELISA, day 7 EPCs, 5 days), the EC50 was > 31600 nM.

For the compound `CCc1c(C#N)c(SC(C(N)=O)c2ccccc2)nc(N(C)CC(=O)NC[C@@H](O)CO)c1C#N` (stereo partly drawn) [Example 666, 2-((6-((2-amino-2-oxo-1-phenylethyl)thio)-3,5-dicyano-4-ethylpyridin-2-yl)(methyl)amino)-N-((R)-2,3-dihydroxypropyl)acetamide], the “DNMT1 BioChemical (pIC50 category)” value at DNMT1 (setting [4]) is “D (Category D: ≥6.5)”. Further, the EC50 in assay [1] (HbF ELISA, day 7 EPCs, 5 days) was 1000 to 31600 nM.

For `CN(C)c1nc(SC(C(N)=O)c2ccncc2)c(C#N)c(C2CC2)c1C#N` (centres unmarked) [Example 26, 2-((3,5-dicyano-4-cyclopropyl-6-(dimethylamino)pyridin-2-yl)thio)-2-(pyridin-4-yl)acetamide], the IC50 on DNMT1 (setting [2]) is 316 to 1000 nM. The EC50 in assay [1] (HbF ELISA, day 7 EPCs, 5 days) is > 31600 nM.

For `CCc1c(C#N)c(S[C@H](C(N)=O)c2ccccc2)nc(N2CC[C@H](N)[C@H](F)C2)c1C#N` [Example 540, (S)-2-((6-((3R,4S)-4-amino-3-fluoropiperidin-1-yl)-3,5-dicyano-4-ethylpyridin-2-yl)thio)-2-phenylacetamide 2,2,2-trifluoroacetate], the IC50 at DNMT1 (setting [2]) is 1000 to 31600 nM; on DNMT1 (setting [3]), ≥ 1000 nM and 3160 nM. In addition, in assay [1] (HbF ELISA, day 7 EPCs, 5 days), the EC50 is < 316 nM.

As to `CCc1c(C#N)c(SC(C(N)=O)c2ccccc2)nc(N2CCC(O)(C(N)=O)CC2)c1C#N` (centres unmarked) [Example 258, 1-(6-((2-Amino-2-oxo-1-phenylethyl)thio)-3,5-dicyano-4-ethylpyridin-2-yl)-4-hydroxy piperidine-4-carboxamide], the IC50 on DNMT1 (setting [2]) is 316 to 1000 nM. Further, the EC50 in assay [1] (HbF ELISA, day 7 EPCs, 5 days) was 1000 to 31600 nM.

Regarding `CCc1c(C#N)c(SC(C(N)=O)c2ccccc2)nc(N2CCC(O)C2)c1C#N` (centres unmarked) [Example 370, 2-((3,5-Dicyano-4-ethyl-6-(3-hydroxypyrrolidin-1-yl)pyridin-2-yl)thio)-2-phenylacetamide], the IC50 at DNMT1 (setting [2]) is 316 to 1000 nM. Moreover, the EC50 in assay [1] (HbF ELISA, day 7 EPCs, 5 days) is 1000 to 31600 nM.

For the compound `CCc1c(C#N)c(SC(C(N)=O)c2ccccc2)nc(N(C)CCN2CC[C@H](N(C)C)C2)c1C#N` (stereo partly drawn) [Example 517, 2-((3,5-dicyano-6-((2-((S)-3-(dimethylamino)pyrrolidin-1-yl)ethyl)(methyl)amino)-4-ethylpyridin-2-yl)thio)-2-phenylacetamide], the “DNMT1 BioChemical (pIC50 category)” value on DNMT1 (setting [4]) is “D (Category D: ≥6.5)”. In assay [1] (HbF ELISA, day 7 EPCs, 5 days), the EC50 was < 316 nM.

On to `CCc1c(C#N)c(SC(C(N)=O)c2ccc(CC(N)=O)cc2)nc(N(C)C)c1C#N` (centres unmarked) [Example 401, 2-(4-(2-Amino-2-oxoethyl)phenyl)-2-(3,5-dicyano-6-(dimethylamino)-4-ethylpyridin-2-ylthio)acetamide], for which the “DNMT1 BioChemical (pIC50 category)” value on DNMT1 (setting [4]) was “D (Category D: ≥6.5)”. Moreover, the EC50 in assay [1] (HbF ELISA, day 7 EPCs, 5 days) was 1000 to 31600 nM.

On to `CCc1c(C#N)c(SC(C(N)=O)c2ccccc2)nc(N2CCO[C@@H](CN)C2)c1C#N` (stereo partly drawn) [Example 586, 2-((6-((S)-2-(aminomethyl)morpholino)-3,5-dicyano-4-ethylpyridin-2-yl)thio)-2-phenylacetamide], for which the “DNMT1 BioChemical (pIC50 category)” value on DNMT1 (setting [4]) is listed as “D (Category D: ≥6.5)”. In assay [1] (HbF ELISA, day 7 EPCs, 5 days), the EC50 was < 316 nM.
